Measured values published in US20170327598A1, “SINGLE DOMAIN ANTIBODIES DIRECTED AGAINST INTRACELLULAR ANTIGENS” (SINGH MOLECULAR MEDICINE, LLC, priority 2014, published 2017).
Where “and” joins values, the source holds several entries; their conditions need not be identical. Equal values may be shown once.

Key:
ARPE-19 cells = test: BCA protein content of ARPE-19 cell lysate, Experiment 1; assay type: cell-based; conditions: 24 Hr; for Protein Conc.: cell lysate
Protocol: For Experiment 1, the retinal cell line ARPE-19 (ATCC, Manassas, Va.) were plated at 5×10^4 cells/well into a 24-well plate and grown to confluence. All incubations with cells were performed in a 37° C., 5% CO2 humidified incubator. The media was replaced with growth media (DMEM:HAM12) containing 1% FBS and incubated overnight. […] At that time, the supernatant was removed and stored at <−65° C. for ELISA analysis. Cells were lysed using RIPA lysis buffer (ThermoFisher Scientific, Rockford, Ill.) and the protein content of the cell lysate was measured in the BCA assay (ThermoFisher Scientific) according to the kit instructions. VEGF-A was measured utilizing the Human VEGF-A ELISA Kit (ThermoFisher Scientific) in accordance with the kit instructions.
ELISA results were reported as pictograms (pg) VEGF-A/mL and then adjusted for the dilution of samples in the ELISA (1:2 for Experiment 1 and 1:5 for Experiment 2). The ELISA results were then normalized for protein content. […] The positive control (PC) (anti-STAT3 monoclonal antibody) ranged from 48.8 to 66.4 pg VEFG/[…] slightly lower but overlapping the range seen with the negative control. Statistical analysis confirmed that the variation seen was not statistically significant (P value >0.05). The samples collected at 72 hours were higher than the top standard curve.

[1] = test system: STAT3 reporter, induction by interleukin-6; test: STAT3 reporter GloResponse SIE-luc2P/HEK293 cell assay, IL-6 induction; assay type: cell-based; conditions: for decrease in RLU: highest concentration;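 for all read-outs here: IL-6 added at 40 ng/mL (EC80) for roughly one day after pretreatment, luciferase luminescence read with Bio-Glo reagent, untreated +IL6 wells serve as control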
[2] = test system: BT474 human breast tumor xenograft; test: BT474 human breast tumor xenograft in CB.17 SCID mice, Example 13; assay type: in vivo
[3] = test system: translocation of Stat3 to the nucleus; test: Stat3 immunofluorescence after IL-6 treatment (HEp-2, MDA-MB-231, PANC-1); assay type: cell-based; conditions: sdAb 1:10 in media overnight, 100 ng/ml IL-6 15 min
Protocol: The cells were grown to confluence on chamber slides. […] As a negative control, no antibody was added to duplicate chambers. The slides were washed, and either serum-free media alone or 100 ng/ml recombinant human IL-6 (Peprotech, Rocky Hill, N.J.) in serum free media was added to the slides for 15 min at 37° C. The media was then removed and the chamber slides were fixed in ice cold 100% methanol for 10 min at −20° C.
Immunofluorescence assays were performed on the fixed slides. First, the slides were blocked with 3% BSA in PBS was done for one hour at room temperature. The primary antibody, Stat3(124H6) mouse monoclonal antibody (Cell Signaling Technology, Danvers, Mass.) was added to the slides at a 1:1000 dilution overnight in dark box at 4° C. The following day, the slides were washed and the secondary Alexa Fluor 488 anti-mouse IgG antibody (Cell Signaling Technology) was added at a 1:500 dilution and incubated for 1 hour at room temperature. The slides were then washed, mounted with mounting media and viewed with a fluorescence microscope.

[4] = test system: VEGF-A production in ARPE-19 cells; test: VEGF-A ELISA in ARPE-19 retinal cells, Experiment 1; assay type: cell-based, human; conditions: for Mean (pg VEGF-A per mL): mean of Adj. Result, Wells 1-3; for Mean (pg VEGF-A per μg protein): mean of Wells 1-3; for % Control: normalized for protein; for Adj. Result (pg VEGF-A per mL) / Result (pg VEGF-A per mL): 72 Hr; for Adj. Result (pg VEGF-A per mL): per well, adjusted for dilution; for Result (pg VEGF-A per mL): single reads, higher than top of standard curve
HT1080 cells = test: Anti-proliferative effect, HT1080 cells; assay type: cell-based; conditions: for Absorbance ± S.E.: 72 hr
PANC-1 cells = test: PANC-1 growth inhibition with or without Gemcitabine; conditions: SBT-100 100 μg/ml alone, 72 hours (Table 44)
DU145 cells = test: MTT proliferation assay, DU145; assay type: cell-based, human; design: Mean Abs: unit of the concentration uncertain
[5] = 24 Hour Treatment Prior to IL6 Induction, high conc.: VHH13 55.8 μg/mL, VHH14 84.3 μg/mL, BB1608 4.16 μM, VHH69 50.5 μg/mL
[6] = 24 Hour Treatment Prior to IL6 Induction, low conc.: VHH13, VHH14, VHH69 10 μg/mL, BB1608 2 μM
[7] = 48 Hour Treatment Prior to IL6 Induction, high conc.: VHH13 55.8 μg/mL, VHH14 84.3 μg/mL, BB1608 4.16 μM, VHH69 50.5 μg/mL
[8] = 48 Hour Treatment Prior to IL6 Induction, low conc.: VHH13, VHH14, VHH69 10 μg/mL, BB1608 2 μM

Substance: Anti-STAT3 VHH13: anti-STAT3 single domain antibody, SEQ ID NO:3; bacterially produced form referred to as SBT-100
- Total protein per well (ARPE-19 cells; 0.1 μg/well): 12 and 16 and 18
- Protein Conc. (ARPE-19 cells; 0.1 μg/well): 245 µg/mL and 323 µg/mL and 357 µg/mL
- Total protein per well (ARPE-19 cells; 0.5 μg/well): 16 and 13
- Protein Conc. (ARPE-19 cells; 0.5 μg/well): 315 µg/mL and 268 µg/mL and 206 µg/mL
- Average RLU [1, 5]: 11498 RLU
- Average RLU with Media Blank [1, 5]: 11473 RLU
- Luminescence (RLU), single wells [1, 5]: 10992 RLU and 11445 RLU and 12058 RLU
- Average RLU [1, 6]: 175275 RLU
- Average RLU with Media Blank [1, 6]: 175249 RLU
- Luminescence (RLU), single wells [1, 6]: 164397 RLU and 169890 RLU and 191537 RLU
- Average RLU [1, 7]: 89 RLU
- Average RLU with Media Blank [1, 7]: 57 RLU
- Luminescence (RLU), single wells [1, 7]: 104 RLU and 96 RLU
- Average RLU [1, 8]: 182218 RLU
- Average RLU with Media Blank [1, 8]: 182185 RLU
- Luminescence (RLU), single wells [1, 8]: 168740 RLU and 188307 RLU and 189606 RLU
- effect on IL-6 induction of STAT3 reporter ([1]; 24 hours and 48 hours treatment prior to IL-6): Inhibition of IL-6
- decrease in RLU ([1]; 24 hours): greater than 10 fold
- decrease in RLU ([1]; 48 hours): greater than 1,000 fold
- T-C ([2]; 1 mg/kg ip tid × 14 first day 2 doses): 10.8
- effect on growth of BT474 tumors in vivo ([2]; 1 mg/kg ip tid×14, compared to the control group): did not reduce the growth
- MTV (n) Day 60 ([2]; Day 60, 1 mg/kg ip tid × 14, n in parentheses): 550 (3)
- tumor volume ([2]; day 59 of the study, both groups): 700 cubic mm^3
- translocation of Stat3 to the nucleus following IL-6 treatment [3]: blocks the translocation of Stat3 to the nucleus
- % Negative Control ([4]; 0.1 μg/well, 24 Hr): 71.1%
- Mean (pg VEGF-A per mL) ([4]; 0.1 μg/well, 24 Hr): 2060 pg VEGF-A per mL
- Mean (pg VEGF-A per μg protein) ([4]; 0.1 μg/well, 24 Hr): 66 pg VEGF-A per μg protein
- % Control ([4]; 0.1 μg/well, 24 Hr): 76.8%
- Adj. Result (pg VEGF-A per mL) ([4]; 0.1 μg/well): >12,000 pg VEGF-A per mL
- Result (pg VEGF-A per mL) ([4]; 0.1 μg/well): >6,000 pg VEGF-A per mL
- Mean (pg VEGF-A per mL) ([4]; 0.5 μg/well, 24 Hr): 2664 pg VEGF-A per mL
- Mean (pg VEGF-A per μg protein) ([4]; 0.5 μg/well, 24 Hr): 99 pg VEGF-A per μg protein
- % Control ([4]; 0.5 μg/well, 24 Hr): 115.8%
- Adj. Result (pg VEGF-A per mL) ([4]; 0.5 μg/well): >12,000 pg VEGF-A per mL
- Result (pg VEGF-A per mL) ([4]; 0.5 μg/well): >6,000 pg VEGF-A per mL
- Absorbance ± S.E. (HT1080 cells; 25 μg/ml): 1.09 ± 0.01
- Absorbance ± S.E. (HT1080 cells; 50 μg/ml): 0.42 ± 0.04
- Absorbance ± S.E. (HT1080 cells; 100 μg/ml): 0.27 ± 0.01
- Absorbance ± S.E. (HT1080 cells; 200 μg/ml): 0.22 ± 0.02
- IC50 (HT1080 cells; HT1080 cells): 33 µg/mL
- Absorbance (PANC-1 cells): 0.333
- Average Absorbance (DU145 cells; DU145, 50 μg): 0.98
- Average % Inhibition (DU145 cells; DU145, 50 μg (50.0 μg/ml), listed as anti-STAT3 bacterial VHH13): 31.2%
- Absorbance (DU145 cells; DU145, 50 μg, Experiments 1-3, listed as Anti-STAT3 Bacterial VHH13): 0.68 and 1.2 and 1.03
- Average Absorbance (DU145 cells; DU145, 100 μg): 0.10
- Mean Abs (DU145 cells; Table 18, DU145, 0.39 (unit uncertain)): 0.906
- Mean Abs (DU145 cells; Table 18, DU145, 3.13 (unit uncertain)): 0.783
- Mean Abs (DU145 cells; Table 18, DU145, 6.25 (unit uncertain)): 0.770
- Mean Abs (DU145 cells; Table 18, DU145, 25 (unit uncertain)): 0.359
- Mean Abs (DU145 cells; Table 18, DU145, 50 (unit uncertain)): 0.161
- Mean Abs (DU145 cells; Table 18, DU145, 100 (unit uncertain)): 0.039
- Mean Abs (DU145 cells; Table 18, DU145, 200 (unit uncertain)): 0.039
